Key:
barnyardgrass [1] = experiment: Test A pre-/postemergence herbicide test; format: in vivo, Echinochloa crus-galli; settings: for Barnyardgrass plant response rating: Preemergence, visual rating on 0 to 100 scale (0 no effect, 100 complete control)
Summary of the method: (§1)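 Visual injury ratings, 0 = no effect, 100 = complete control, taken ~10 days after treatment against untreated greenhouse controls. Preemergence: directed soil spray onto seeded loam/sand pots. Postemergence: spray onto plants at one- to two-leaf stage, 2–10 cm tall.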

crabgrass, large = experiment: Test A pre-/postemergence herbicide test; format: in vivo, Digitaria sanguinalis; settings: for Crabgrass, Large plant response rating: Preemergence, visual rating on 0 to 100 scale (0 no effect, 100 complete control)
Summary of the method: as §1

giant foxtail = experiment: Test A pre-/postemergence herbicide test; format: in vivo, Setaria faberii; settings: for Foxtail, Giant plant response rating: Preemergence, visual rating on 0 to 100 scale (0 no effect, 100 complete control)
Summary of the method: as §1

morningglory = experiment: Test A pre-/postemergence herbicide test; format: in vivo, Ipomoea spp.; settings: for Morningglory plant response rating: Preemergence, visual rating on 0 to 100 scale (0 no effect, 100 complete control)
Summary of the method: as §1

pigweed = experiment: Test A pre-/postemergence herbicide test; format: in vivo, Amaranthus retroflexus; settings: for Pigweed plant response rating: Preemergence, visual rating on 0 to 100 scale (0 no effect, 100 complete control)
Summary of the method: as §1

velvetleaf = experiment: Test A pre-/postemergence herbicide test; format: in vivo, Abutilon theophrasti; settings: for Velvetleaf plant response rating: Preemergence, visual rating on 0 to 100 scale (0 no effect, 100 complete control)
Summary of the method: as §1

wheat = experiment: Test A pre-/postemergence herbicide test; format: in vivo, Triticum aestivum; settings: for Wheat plant response rating: Preemergence, visual rating on 0 to 100 scale (0 no effect, 100 complete control)
Summary of the method: as §1

corn = experiment: Test A pre-/postemergence herbicide test; format: in vivo, Zea mays; settings: for Corn plant response rating: Preemergence, visual rating on 0 to 100 scale (0 no effect, 100 complete control)
Summary of the method: as §1

rice = experiment: Test B flooded paddy test; format: in vivo, Oryza sativa; settings: 250 g ai/ha, Flood; scale of 0 to 100 where 0 is no effect and 100 is complete control
Summary of the method: (§2)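 2-leaf plants; flood 3 cm over soil; compound into paddy water; depth held. Greenhouse 13–15 d. Visual rating vs controls, 0 (no effect) to 100 (complete control); dash = not tested.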

sedge, umbrella = experiment: Test B flooded paddy test; format: in vivo, Cyperus difformis; settings: 250 g ai/ha, Flood; scale of 0 to 100 where 0 is no effect and 100 is complete control
Summary of the method: as §2

ducksalad = experiment: Test B flooded paddy test; format: in vivo, Heteranthera limosa; settings: 250 g ai/ha, Flood; scale of 0 to 100 where 0 is no effect and 100 is complete control
Summary of the method: as §2

barnyardgrass [2] = experiment: Test B flooded paddy test; format: in vivo, Echinochloa crus-galli; settings: 250 g ai/ha, Flood; scale of 0 to 100 where 0 is no effect and 100 is complete control
Summary of the method: as §2

[3] = Postemergence, 125 g ai/ha, 0 to 100 scale, 0 no effect, 100 complete control
[4] = Postemergence, 500 g ai/ha, 0 to 100 scale (0 no effect, 100 complete control)
[5] = preemergence, 500 g ai/ha, 0 to 100 scale (0 no effect, 100 complete control)
[6] = preemergence, 500 g ai/ha, 0 to 100 scale

SMILES	Plant response rating, Barnyardgrass (barnyardgrass [1]; [3])	Plant response rating, Barnyardgrass (barnyardgrass [1]; [4])	Barnyardgrass plant response rating (barnyardgrass [1]; 125 g ai/ha)	Plant response rating, Barnyardgrass (barnyardgrass [1]; [5])	Plant response rating, Crabgrass, Large (crabgrass, large; [3])	Plant response rating, Crabgrass, Large (crabgrass, large; [4])	Crabgrass, Large plant response rating (crabgrass, large; 125 g ai/ha)	Plant response rating, Crabgrass, Large (crabgrass, large; [6])	Plant response rating, Foxtail, Giant (giant foxtail; [3])	Plant response rating, Foxtail, Giant (giant foxtail; [4])	Foxtail, Giant plant response rating (giant foxtail; 125 g ai/ha)	Plant response rating, Foxtail, Giant (giant foxtail; [6])	Plant response rating, Morningglory (morningglory; [3])	Plant response rating, Morningglory (morningglory; [4])	Morningglory plant response rating (morningglory; 125 g ai/ha)	Plant response rating, Morningglory (morningglory; [6])	Plant response rating, Pigweed (pigweed; [3])	Plant response rating, Pigweed (pigweed; [4])	Pigweed plant response rating (pigweed; 125 g ai/ha)	Plant response rating, Pigweed (pigweed; [6])	further results
O=C1NCC(c2ccc(F)c(F)c2)C1C(=O)Nc1cccc(F)c1C(F)(F)F (stereo not drawn) [Compound 67]	40	60	30	70	50	90	90	90	80	90	80	90	0	0	0	0	0	20	0	0	Plant response rating, Velvetleaf (velvetleaf; [3]): 0; Plant response rating, Velvetleaf (velvetleaf; [4]): 0; Velvetleaf plant response rating (velvetleaf; 125 g ai/ha): 0; Plant response rating, Velvetleaf (velvetleaf; [6]): 0; Plant response rating, Wheat (wheat; [3]): 0; Plant response rating, Wheat (wheat; [4]): 0; Wheat plant response rating (wheat; 125 g ai/ha): 0; Plant response rating, Wheat (wheat; [6]): 0; Plant response rating, Corn (corn; [3]): 0; Plant response rating, Corn (corn; [4]): 0; Corn plant response rating (corn; 125 g ai/ha): 0; Plant response rating, Corn (corn; [6]): 0; Plant response rating, Rice (rice): 0; Plant response rating, Sedge, Umbrella (sedge, umbrella): 50; Plant response rating, Ducksalad (ducksalad): 70; Plant response rating, Barnyardgrass (barnyardgrass [2]): 0
CC(C)(C)OC(=O)Nc1cccc(C2CNC(=O)C2C(=O)Nc2cccc(F)c2F)c1 (stereo not drawn) [Compound 70]	20	60	20	90	20	70	80	90	20	80	70	90	0	0	0	0	0	20	0	0	Plant response rating, Velvetleaf (velvetleaf; [3]): 0; Plant response rating, Velvetleaf (velvetleaf; [4]): 20; Velvetleaf plant response rating (velvetleaf; 125 g ai/ha): 0; Plant response rating, Velvetleaf (velvetleaf; [6]): 0; Plant response rating, Wheat (wheat; [3]): 0; Plant response rating, Wheat (wheat; [4]): 40; Wheat plant response rating (wheat; 125 g ai/ha): 0; Plant response rating, Wheat (wheat; [6]): 20; Plant response rating, Corn (corn; [3]): 0; Plant response rating, Corn (corn; [4]): 0; Corn plant response rating (corn; 125 g ai/ha): 0; Plant response rating, Corn (corn; [6]): 0; Plant response rating, Rice (rice): 35; Plant response rating, Sedge, Umbrella (sedge, umbrella): 70; Plant response rating, Ducksalad (ducksalad): 85; Plant response rating, Barnyardgrass (barnyardgrass [2]): 40

Source: patent US10294202B2, “Pyrrolidinones as herbicides” (FMC Corporation, priority 2013, dated 2019)
